Data on seven molecules can be found in patent US9598463B2, “Mucin hypersecretion inhibitors and methods of use” (BIOMARCK PHARMACEUTICALS, LTD., priority 2005, dated 2017).

A short description of data set [1]: Stability of test peptides in human CF mucus (LC/MS/MS, first order half-life). In kind it is in vitro ADME. As for the experimental part: (§1) Various test peptides in human plasma, human BALF, and CF patient mucus were analyzed to determine the susceptability of the test peptide to proteolysis in the biological fluids. […] The samples were analyzed either on the same day as received or stored at −20° C. and analyzed within the following two days.
The frozen mucus (sputum) from a CF patient was thawed and mixed with 2 volumes of 75 mM sodium acetate buffer, pH 7 with the help of a glass tissue grinder, centrifuged at 10,000×g for 10 min at 4-8° C. The pellet was re-suspended in 1 volume of the acetate buffer and centrifuged. The two supernatants were combined and used as follows. The supernatant (450 μL) was spiked with 50 μL, of 0.5 mg/mL solution of the peptide in 75 mM sodium acetate buffer at pH 7.0 and processed and analyzed as described above.
(§2) All samples were analyzed using LC/MS/MS (MDS/SCIEX, API 4000 Model). Chromatography was performed using a Phenomenex Luna C18 column, while mass spectrometry was performed using positive ion electrospray ionization.
(§3) Calibration standards were analyzed by LCMS at concentrations of 0.100 μg/mL, 1.00 μg/mL, 10.0 μg/mL, and 100 μg/mL for each peptide, with the exception of the calibration standards for peptides myr-PEPTIDE 106, PEPTIDE 106, PEPTIDE 106-NH2, PEPTIDE 106, and cyclic peptide, cyc-PEPTIDE 106, in human mucus, which were analyzed at concentrations of 0.100 μg/mL, 1.00 μg/mL, 10.0 μg/mL, and 75 μg/mL. Standards were prepared in 1% human BALF, plasma, or mucus in 50/50 water/acetonitrile mixture containing 0.2% formic acid. The instrument response values for each set of standards were fit using a 1/(concentration)^2 linear least-squares line. Sample concentrations were calculated using the slope and intercept of this line. Concentrations outside of the calibration range were determined by extrapolating the calibration curve.
(§4) Watson fits the log transformed data with a least-squares line to determine parameters such as Cmax (maximum concentration), intercept, rate constant, slope, and T1/2 (half-life). The resulting kinetic parameters were based on the linear fit, not the actual concentration values.
(§5) Time-zero calibration standards in solution were not included as part of the kinetic profiles.

The nature of data set [2]: Qualitative solubility of test peptides in 0.5 N saline. In kind it is physicochemical. The following applies: pH 6.5, 20° C. (table title). As for the experimental part:
Various test peptides (1 to 5 mg each) were weighed out accurately in individual 2 mL screw cap glass vials and aliquots of 25 μL of 0.5 N saline, pH 6.5, were added at 25° C. and ambient pressure. The solubility was evaluated visually. If the test peptide dissolves completely with the first aliquot of saline, its solubility was calculated and designated as more than the calculated amount. […] Similarly, if 1.7 mg of a test peptide fails to dissolve in 1.7 mL of 0.5 N saline, its solubility is stated as <1.0 mg/mL.

Data set [3] is described as follows: Stability of test peptides in human plasma (LC/MS/MS, first order half-life). In kind it is in vitro ADME. The method, then:
as §1
Fresh human blood samples were collected in citrate buffered vacuutrainers (in absence of EDTA or heparin). Red blood cells (RBC) were removed by centrifugation of the blood at 4000×g for 10 min at 4° C. Plasma aliquots (0.9 mL) were then spiked with 0.1 mL of 0.5 mg/mL solution of the test peptide in 75 mM sodium acetate buffer at pH 7.0 and incubated in a water bath maintained at 37° C. Duplicate aliquots of 10 μL, were withdrawn at 5, 15, 30, 60, and 180 minutes intervals and immediately “quenched” with 990 μL of a solution consisting of 50% acetonitrile+50% water containing 0.2% formic acid. The samples were then subjected to liquid chromatography-mass spectrometry (LCMS) analysis.
as §2
as §3, with “curve. […]” for “curve.”
For the analysis of peptide concentration in plasma, duplicate calibration standards were analyzed at a concentration of 25 μg/mL and 50 μg/mL for each peptide. The instrument response values for each set of standards were fit through an intercept of 0 using an unweighted, linear least-squares line. Sample concentrations were calculated using the slope and intercept of this line. Concentrations outside of the calibration range were determined by extrapolating the calibration curve.
as §4, §5

A short description of data set [4]: Stability of test peptides in human BALF (LC/MS/MS, first order half-life). Format: in vitro ADME. The method, then:
as §1
Samples of BALF collected from COPD patients were obtained and frozen. The BALF samples were thawed, mixed together and centrifuged at 10,000×g for 10 min at 4-8° C. The supernatant (0.9 mL) was spiked with 0.1 mL of 0.5 mg/mL solution of the peptide in 75 mM sodium acetate buffer at pH 7.0 and processed and analyzed as described above.
as §2, §3
Duplicate calibration standards were analyzed at a concentration of 50 μg/mL for each peptide. The instrument response values for each set of standards were fit through an intercept of 0 using an unweighted, linear least-squares line. Sample concentrations were calculated using the slope and intercept of this line.
For the analysis of peptide concentration in BALF samples, one 50 μg/mL calibration standard prepared in a mixture of BALF, water, acetonitrile, and formic acid was analyzed with each sample set.
as §4, §5

Data set [5] has as its system methacholine-induced mucin hypersecretion. In words: Methacholine-induced mucin hypersecretion in ovalbumin-sensitized mouse model of asthma, BAL mucin ELISA (Balb/C mice). To be noted: for Mucin Secretion % control: Table II, peptides at 100 μM, 50 μL intratracheal 15 min before methacholine; for Mucin Secretion % of control: Table IV. Format: in vivo. From the text:
Experiments were designed to test whether or not the MANS peptide and other test peptides related thereto inhibit hypersecretion of mucin in murine airway in vivo. The ovalbumin-sensitized mouse model of allergic inflammation and asthma used in these studies was as described by Singer et al. (2004), supra. As a negative control, a control peptide containing an N-terminal myristoyl group and the same amino acids as MANS peptide but arranged in random order (i.e., the random N-terminal sequence, RNS, myristoyl-peptide 232) was tested alongside the proposed active peptides. BP2 mice, aged 6-8 wks, were immunized subcutaneously twice at weekly intervals with 1 μg of ovalbumin. After 14 days of sensitization, the animals were exposed to aerosolized ovalbumin, which causes a pronounced goblet cell hyperplasia after 72 hours. At the 72 hr time point, the secretagogue, methacholine ([…]) was delivered using a Buxco system nebulizer providing a fine aerosol for 90 seconds. Fifteen min prior to the secretagogue challenge, 50 μL of the test peptide, at 3 different concentrations (10 μM, 100 μM, or 140 μM), was administered by intratracheal route. The RNS peptide was tested at the highest dose level only (50 μL of 140 μM solution). […] Each experiment was carried out in 6 mice per point, and each set of experiments was repeated 3 times. To test strain-to-strain variations, the above experiment was repeated in Balb/C mice under similar protocol. Both stimulated and unstimulated mucin secretion, in mice treated with […] sodium acetate (data not shown), were identical to saline control. Following the methacholine challenge, the animals were sacrificed and bronchoalveolar lavage (BAL) performed on 6 animals per group for analysis of secreted mucin.
Mice were sacrificed by cervical dislocation, followed by rapid exposure of the trachea and insertion of a cannula through a small incision. Bronchoalveolar lavage (BAL) fluid was collected with 0.5 ml followed by 3×1 ml PBS containing PMSF (5 mM), EDTA (5 mM), and DTT (5 mM). BAL fluid was separated into cell-free and cell fractions via brief centrifugation prior to any analyses being performed. The cell-free supernatants were analyzed for the presence of mucin via an ELISA method using anti-mucin antibodies shown to react with mouse mucin. Specifically, a mouse anti-MUC5AC antibody that recognizes the carbohydrate portion of secreted mucin was used in these assays. Data generated from each BAL sample were normalized to total protein as determined by Bradford assay. Mucin content was expressed as the value obtained with the anti-mucin antibody minus that obtained with the non-immune control antibody. All ELISA data were statistically examined using a one-way ANOVA.

Setting [6] is: human plasma, 37° C., 2nd experiment, read-out: Plasma t1/2 (2nd exp.) (converted).
[7] abbreviates: human plasma, 37° C., 1st experiment, read-out: Plasma t1/2 (1st exp.) (converted).
Where [8] appears, read: human BALF from COPD patients, 1st experiment, read-out: BALF t1/2 (1st exp.) (converted).

The term solubility denotes the concentration that dissolves in the medium under given conditions. A low value points to little dissolved substance.

Marks after values point to notes of the source that are not given here. Where a SMILES comes first, the peptide text is derived from it. The star is where a group is joined. Myristoyl = CCCCCCCCCCCCCC(=O)* Where only a bound is given, the exact number is not on record here.

Regarding `C[C@@H]1NC(=O)CNC(=O)[C@H](CCCCN)NC(=O)[C@H](C)NC(=O)[C@H](C)NC(=O)[C@H]([C@@H](C)O)NC(=O)[C@H](CCCCN)NC(=O)[C@H](CO)NC(=O)[C@H](Cc2ccccc2)NC(=O)[C@H](CCC(N)=O)NC1=O` [cyclic-peptide 106] (cyclo(GAQFSKTAAK)), the half-life was 1.1 h in data set [1] (human CF mucus, 1st experiment, read-out: Mucus t1/2 (1st exp.) (converted)); 2 h in data set [1] (human CF mucus, 2nd experiment, read-out: Mucus t1/2 (2nd exp.) (converted)); 1.04 h in data set [3] (setting [6]). Moreover, the solubility in data set [2] is > 150 mg/mL.

In the case of `CCCCCCCCCCCCCC(=O)NCC(=O)N[C@@H](C)C(=O)N[C@@H](CCC(N)=O)C(=O)N[C@@H](Cc1ccccc1)C(=O)N[C@@H](CO)C(=O)N[C@@H](CCCCN)C(=O)N[C@H](C(=O)N[C@@H](C)C(=O)N[C@@H](C)C(=O)N[C@@H](CCCCN)C(=O)O)[C@@H](C)O` [myr-peptide 106] (Myristoyl-GAQFSKTAAK-OH), the half-life in data set [1] (cerebrospinal or other body fluid, pH 7, Mucus t1/2 (1st exp.)) was 9.53 h; in data set [1] (cerebrospinal or other body fluid, pH 7, Mucus t1/2 (2nd exp.)), 3 h; in data set [3] (Plasma t1/2 (1st exp.)) it was 1.23 h; in data set [3] (Plasma t1/2 (2nd exp.)) it was 0.9 h; in data set [4] it was 1.03 h. In addition, in data set [2], the solubility is > 10 mg/mL. The “Mucin Secretion % control” value in data set [5] stood at 33.6 % control. Further, the results for the “Mucin Secretion % of control” value in data set [5] (peptide 10 μM) and in data set [5] (peptide 100 μM) were 74*+ % of control and 24** % of control, respectively.

For the molecule `CCCCCCCCCCCCCC(=O)NCC(=O)N[C@@H](C)C(=O)N[C@@H](CCC(N)=O)C(=O)N[C@@H](Cc1ccccc1)C(=O)N[C@@H](CO)C(=O)N[C@@H](CCCCN)C(=O)N[C@H](C(=O)N[C@@H](CCCCN)C(=O)N[C@@H](C)C(=O)N[C@@H](CCCCN)C(=O)NCC(=O)N[C@@H](CCC(=O)O)C(N)=O)[C@@H](C)O` [myr-peptide 234-NH2] (Myristoyl-GAQFSKTKAKGE-NH2), the solubility in data set [2] is < 2 mg/mL. Moreover, the figures for the half-life in data set [3] (setting [7]) and in data set [4] (setting [8]) were 3.82 h and 1.7 h, respectively. The “Mucin Secretion % control” value in data set [5] turned out to be 27.8 % control.

Consider `CCCCCCCCCCCCCC(=O)NCC(=O)N[C@@H](C)C(=O)N[C@@H](CCC(N)=O)C(=O)N[C@@H](C)C(=O)N[C@@H](CO)C(=O)N[C@@H](CCCCN)C(=O)N[C@H](C(=O)N[C@@H](C)C(=O)N[C@@H](C)C(=O)N[C@@H](CCCCN)C(=O)O)[C@@H](C)O` [myr-peptide 236] (Myristoyl-GAQASKTAAK-OH), for which the solubility in data set [2] was < 10 mg/mL. The half-life in data set [3] (setting [7]) was 0.72 h; in data set [4] (cerebrospinal or other body fluid, human BALF from COPD patients, 1st experiment, read-out: BALF t1/2 (1st exp.) (converted)) it was 3.55 h; in data set [4] (cerebrospinal or other body fluid, human BALF from COPD patients, 2nd experiment, read-out: BALF t1/2 (2nd exp.) (converted)) it was 2.94 h.

With Ac-GAQFSKTAAKGE-NH2 [Ac-peptide 79-NH2], the solubility in data set [2] is > 60 mg/mL. For the same molecule, in data set [3] (setting [7]), the half-life is 2.64 h.

Consider “H-GAQASKTAAKGE-OH [peptide 237, GAQASKTAAKGE]”, for which the solubility in data set [2] is > 80 mg/mL. Moreover, the half-life in data set [3] (setting [7]) is 0.49 h. The “Mucin Secretion % of control” value in data set [5] (peptide 10 μM) is 67*+ % of control; in data set [5] (peptide 100 μM) it was 8** % of control.

As to H-GAQFSKTAAK-NH2 [peptide 106-NH2], the half-life in data set [1] (cerebrospinal or other body fluid, pH 7, human CF mucus, 1st experiment, read-out: Mucus t1/2 (1st exp.) (converted)) was 0.08 h; in data set [1] (cerebrospinal or other body fluid, pH 7, human CF mucus, 2nd experiment, read-out: Mucus t1/2 (2nd exp.) (converted)), 0.13 h; in data set [3] (setting [7]) it was 0.3 h; in data set [3] (setting [6]) it was 0.13 h; in data set [4] (setting [8]), 4 h. The solubility in data set [2] is > 100 mg/mL.
